Reference: patent publication US12077503B2, “Substituted cyclic amides and their use as herbicides” (FMC CORPORATION, priority 2015, dated 2024)

Key:
Assay type in all cases: in vivo
[1] = tested on: Kochia (Kochia scoparia); test: Test A preemergence; settings: for Plant response rating, Kochia: 125 g ai/ha, 0 to 100 scale (0 no effect, 100 complete control)
Description: (§1) Seeds of plant species selected from barnyardgrass (Echinochloa crus-galli), Kochia (Kochia scoparia), ragweed (common ragweed, Ambrosia elatior), ryegrass, Italian (Italian ryegrass, Lolium multiflorum), crabgrass, large (Digitaria sanguinalis), giant foxtail (Setaria faberii), green foxtail (Setaria viridis), morningglory (Ipomoea spp.), pigweed (Amaranthus retroflexus), velvetleaf (Abutilon theophrasti), wheat (Triticum aestivum), and corn (Zea mays) were planted into a blend of loam soil and sand and treated preemergence with a directed soil spray using test chemicals formulated in anon-phytotoxic solvent mixture which included a surfactant.
(§2) At the same time, plants selected from these crop and weed species and also blackgrass (Alopecurus myosuroides), and Galium (catchweed bedstraw, Galium aparine) were planted in pots containing the same blend of loam soil and sand and treated with postemergence applications of test chemicals formulated in the same manner. Plants ranged in height from 2 to 10 cm and were in the one- to two-leaf stage for the postemergence treatment. Treated plants and untreated controls were maintained in a greenhouse for approximately 10 d, after which time all treated plants were compared to untreated controls and visually evaluated for injury. Plant response ratings, summarized in Table A, are based on a 0 to 100 scale where 0 is no effect and 100 is complete control. A dash (-) response means no test result.

[2] = tested on: barnyardgrass (Echinochloa crus-galli); test: Test A preemergence; settings: for Plant response rating, Barnyardgrass: 125 g ai/ha, 0 to 100 scale (0 no effect, 100 complete control)
Description: as §1, §2

[3] = tested on: giant foxtail (Setaria faberii); test: Test A preemergence; settings: for Plant response rating, Foxtail, Giant: 125 g ai/ha, 0 to 100 scale (0 no effect, 100 complete control)
Description: as §1, §2

[4] = tested on: pigweed (Amaranthus retroflexus); test: Test A preemergence; settings: for Plant response rating, Pigweed: 125 g ai/ha, 0 to 100 scale (0 no effect, 100 complete control)
Description: as §1, §2

[5] = tested on: ragweed (common ragweed, Ambrosia elatior); test: Test A preemergence; settings: for Plant response rating, Ragweed: 125 g ai/ha, 0 to 100 scale (0 no effect, 100 complete control)
Description: as §1, §2

[6] = tested on: ryegrass, Italian (Italian ryegrass, Lolium multiflorum); test: Test A preemergence; settings: for Plant response rating, Ryegrass, Italian: 125 g ai/ha, 0 to 100 scale (0 no effect, 100 complete control)
Description: as §1, §2

[7] = tested on: Galium (catchweed bedstraw, Galium aparine); test: Test A postemergence
Description: as §1, §2

[8] = tested on: Kochia (Kochia scoparia); test: Test A postemergence
Description: as §1, §2

[9] = tested on: barnyardgrass (Echinochloa crus-galli); test: Test A postemergence
Description: as §1, §2

[10] = tested on: blackgrass (Alopecurus myosuroides); test: Test A postemergence
Description: as §1, §2

[11] = tested on: corn (Zea mays); test: Test A postemergence
Description: as §1, §2

[12] = tested on: giant foxtail (Setaria faberii); test: Test A postemergence
Description: as §1, §2

[13] = tested on: pigweed (Amaranthus retroflexus); test: Test A postemergence
Description: as §1, §2

[14] = tested on: ragweed (common ragweed, Ambrosia elatior); test: Test A postemergence
Description: as §1, §2

[15] = tested on: ryegrass, Italian (Italian ryegrass, Lolium multiflorum); test: Test A postemergence
Description: as §1, §2

[16] = tested on: wheat (Triticum aestivum); test: Test A postemergence
Description: as §1, §2

[17] = tested on: barnyardgrass (Echinochloa crus-galli); test: Test B flooded paddy test; settings: Flood, 250 g ai/ha, 0 to 100 scale where 0 is no effect and 100 is complete control
Protocol: (§3) Plant species in the flooded paddy test selected from rice (Oryra sativa), sedge, umbrella (small-flower umbrella sedge, Cyperus difformis), ducksalad (Heteranthera limosa), and barnyardgrass (Echinochloa crus-galli) were grown to the 2-leaf stage for testing. At time of treatment, test pots were flooded to 3 cm above the soil surface, treated by application of test compounds directly to the paddy water, and then maintained at that water depth for the duration of the test. Treated plants and controls were maintained in a greenhouse for 13 to 15 d, after which time all species were compared to controls and visually evaluated. Plant response ratings, summarized in Table B, are based on a scale of 0 to 100 where 0 is no effect and 100 is complete control. A dash (-) response means no test result.

[18] = tested on: ducksalad (Heteranthera limosa); test: Test B flooded paddy test; settings: Flood, 250 g ai/ha, 0 to 100 scale where 0 is no effect and 100 is complete control
Protocol: as §3

[19] = tested on: rice (Oryra sativa); test: Test B flooded paddy test; settings: Flood, 250 g ai/ha, 0 to 100 scale where 0 is no effect and 100 is complete control
Protocol: as §3

[20] = tested on: sedge, umbrella (small-flower umbrella sedge, Cyperus difformis); test: Test B flooded paddy test; settings: Flood, 250 g ai/ha
Protocol: as §3

[21] = Preemergence, 500 g ai/ha, 0 is no effect, 100 is complete control
[22] = 500 g ai/ha, postemergence, 0 to 100 scale, 0 no effect, 100 complete control
[23] = Postemergence, 125 g ai/ha, visual injury, 0 to 100 scale (0 no effect, 100 complete control), approx. 10 d
[24] = 500 g ai/ha, preemergence, 0 to 100 scale where 0 is no effect and 100 is complete control
[25] = 125 g ai/ha, Postemergence, visual rating about 10 d after treatment
[26] = Postemergence, 500 g ai/ha, visual injury, 0 to 100 scale (0 no effect, 100 complete control), approx. 10 d

Compound: Cc1cccc(C2CNC(=O)C2C(=O)Nc2ccccc2C(F)(F)F)c1 (racemic) [Compound 374]
- Plant response rating, Kochia ([1]; preemergence): 0
- Kochia plant response rating (0 to 100 scale) [1, 21]: 0
- Plant response rating, Barnyardgrass ([2]; preemergence): 90
- Barnyardgrass plant response rating (0 to 100 scale) [2, 21]: 90
- Plant response rating, Foxtail, Giant ([3]; preemergence): 90
- Foxtail, Giant plant response rating (0 to 100 scale) [3, 21]: 90
- Plant response rating, Pigweed ([4]; preemergence): 0
- Pigweed plant response rating (0 to 100 scale) [4, 21]: 0
- Plant response rating, Ragweed ([5]; preemergence): 0
- Ragweed plant response rating (0 to 100 scale) [5, 21]: 0
- Plant response rating, Ryegrass, Italian ([6]; preemergence): 0
- Ryegrass, Italian plant response rating (0 to 100 scale) [6, 21]: 30
- Plant response rating, Galium [7, 22]: 40
- Plant response rating, Galium [7, 23]: 0
- Plant response rating, Kochia [8, 22]: 0
- Plant response rating, Kochia [8, 23]: 0
- Plant response rating, Barnyardgrass [9, 22]: 90
- Plant response rating, Barnyardgrass [9, 23]: 80
- Plant response rating, Blackgrass [10, 22]: 50
- Plant response rating, Blackgrass [10, 23]: 0
- Plant response rating, Corn [11, 22]: 20
- Plant response rating, Corn [11, 23]: 0
- Plant response rating, Foxtail, Giant [12, 22]: 50
- Plant response rating, Foxtail, Giant [12, 23]: 20
- Plant response rating, Pigweed [13, 22]: 0
- Plant response rating, Pigweed [13, 23]: 0
- Plant response rating, Ragweed [14, 22]: 0
- Plant response rating, Ragweed [14, 23]: 0
- Plant response rating, Ryegrass, Italian [15, 22]: 0
- Plant response rating, Ryegrass, Italian [15, 23]: 0
- Plant response rating, Wheat [16, 22]: 40
- Plant response rating, Wheat [16, 23]: 0
- Plant response rating, Barnyardgrass ([17]; 13 to 15 d): 60
- Plant response rating, Ducksalad ([18]; 13 to 15 d): 95
- Plant response rating, Rice ([19]; 13 to 15 d): 30
- Plant response rating, Sedge, Umbrella ([20]; 0 to 100 scale where 0 is no effect and 100 is complete control, 13 to 15 d): 0

Compound: Cc1cc([C@H]2CN(C)C(=O)[C@@H]2C(=O)Nc2ccccc2[S+](C)[O-])ccc1F (stereo partly drawn) [Compound 1314]
- Kochia plant response rating [1, 24]: 80
- Plant response rating, Kochia ([1]; Preemergence): 80
- Barnyardgrass plant response rating [2, 24]: 100
- Plant response rating, Barnyardgrass ([2]; Preemergence): 100
- Foxtail, Giant plant response rating [3, 24]: 100
- Plant response rating, Foxtail, Giant ([3]; Preemergence): 90
- Pigweed plant response rating [4, 24]: 70
- Plant response rating, Pigweed ([4]; Preemergence): 0
- Ragweed plant response rating [5, 24]: 100
- Plant response rating, Ragweed ([5]; Preemergence): 80
- Plant response rating, Ryegrass, Italian ([6]; Preemergence): 20
- Galium plant response rating (0 to 100 scale) [7, 25]: 30
- Plant response rating, Galium [7, 26]: 50
- Kochia plant response rating (0 to 100 scale) [8, 25]: 50
- Plant response rating, Kochia [8, 26]: 60
- Blackgrass plant response rating (0 to 100 scale) [10, 25]: 0
- Plant response rating, Blackgrass [10, 26]: 60
- Corn plant response rating (0 to 100 scale) [11, 25]: 30
- Plant response rating, Corn [11, 26]: 70
- Foxtail, Giant plant response rating (0 to 100 scale) [12, 25]: 90
- Plant response rating, Foxtail, Giant [12, 26]: 90
- Pigweed plant response rating (0 to 100 scale) [13, 25]: 0
- Plant response rating, Pigweed [13, 26]: 30
- Ragweed plant response rating (0 to 100 scale) [14, 25]: 0
- Plant response rating, Ragweed [14, 26]: 50
- Ryegrass, Italian plant response rating (0 to 100 scale) [15, 25]: 0
- Plant response rating, Ryegrass, Italian [15, 26]: 0
- Wheat plant response rating (0 to 100 scale) [16, 25]: 20
- Plant response rating, Wheat [16, 26]: 60
- Barnyardgrass plant response rating [17]: 65
- Ducksalad plant response rating [18]: 100
- Rice plant response rating [19]: 0
- Plant response rating, Sedge, Umbrella (0 to 100 scale where 0 is no effect and 100 is complete control) ([20]; visually evaluated after 13 to 15 d): 0
